Where a SMILES comes first, the peptide text is derived from it.

Usually IC50 stands for the concentration that gives 50% inhibition.

The target of the assay is guinea pig brain membranes. The assay can be described thus: Binding test with guinea pig brain membranes. The note with it: tested on guinea pig brain membranes; read-out: IC50 = 100 μM. The method, then: Binding Assay Alternative Protocol by Skatron
The experimental conditions are identical for all the binding assay protocols except for the fact that: i) the volume R in operation is 200 μl; ii) the test carried out in 96-well Falcon plates iii) the reaction is directly stopped by filtration on filterMat (ref. 11734) Skatron and the radioactivity associated with the filtrate is evaluated: either directly with a γ counter for the peptides labelled with […]: or with a […] in the presence of 5 ml of scintillating liquid.
Membrane Preparations of Guinea Pig Brains and Binding Assay
The guinea pigs are sacrificed by rupturing their cervical vertibrae, decapitated, and the brains are removed very rapidly and placed into a sucrose-Tris-HCl buffer (0.32 M sucrose 5 mM, Tris-HCl, 0.1 g/l bacitracin) at 4° C. (about 10 ml of buffer per brain). The brains are then homogenized using a Potter device and the homogenate is placed in incubation for 30 minutes at 37° C. under agitation, then centrifuged twice for 35 minutes at 100,000×g at 4° C. The protein content of the membrane preparations is evaluated according to the Bradford method (BioRad, according to the manufacturers protocol).
Bonding of Labelled Agonists to the Guinea Pig Brain Membrane Preparation The membranes are placed in a buffer (50 mM of Tris-HCl, 5 mM of MgCl2 and 0.1 g/l of bacitracin) at the desired protein concentration (iodized CCK bond, 0.1 mg of protein/ml; iodized gastrin bond: 0.5 mg of proteins/ml). They are then incubated in the presence of a labelled ligand in a total volume of 500 μl (about 10 pM for the iodized CCK8, 20 pM for the iodized gastrin13), 50-80 minutes at 25° C., and in the presence or absence of cold agonists. The reaction is stopped with 3 ml of additional BSA buffer (20 g/l) at 4° C., the tubes are centrifuged at 10,000×g, the supernatant is drawn off and the radioactivity associated with the precipitate is evaluated with a γ counter.
For the compound `CSCC[C@H](NC(=O)CNC(=O)[C@H](Cc1ccccc1)NC(=O)[C@H](CC(N)=O)NC(=O)[C@H](CCCNC(=N)N)NC(=O)[C@H](CC(C)C)NC(=O)[C@@H](NC(=O)[C@H](CCSC)NC(=O)[C@H](CC(C)C)NC(=O)[C@H](CO)NC(=O)[C@@H](N)Cc1ccccc1)[C@@H](C)O)C(N)=O` [Example 28, H-FSLMTLRNFGM-NH2] (H-FSLMTLRNFGM-NH2), the IC50 was 400 nM.

On to `CC(C)C[C@H](NC(=O)[C@@H]1CCCN1C(=O)[C@H](CC(C)C)NC(=O)[C@H](CCC(N)=O)NC(=O)[C@@H](N)Cc1ccccc1)C(=O)N[C@@H](CC(=O)O)C(=O)N[C@@H](CCCCN)C(=O)NCC(=O)N[C@@H](CC(N)=O)C(N)=O` [Example 29, H-FQLPLDKGN-NH2] (H-FQLPLDKGN-NH2), for which the IC50 was found to be 10 nM.

Take `CC[C@H](C)[C@H](NC(=O)[C@H](CO)NC(=O)[C@H](Cc1ccccc1)NC(=O)[C@@H](N)CO)C(=O)N[C@H](C(=O)NCC(=O)N[C@@H](CC(=O)O)C(=O)N[C@@H](Cc1ccccc1)C(=O)N[C@@H](CCC(N)=O)C(=O)N[C@@H](CC(N)=O)C(N)=O)[C@@H](C)CC` [Example 30, H-SFSIIGDFQN-NH2] (H-SFSIIGDFQN-NH2): the IC50 was found to be 27000 nM.

In the case of `CC[C@H](C)[C@H](NC(=O)[C@H](CCC(=O)O)NC(=O)[C@H](C)NC(=O)[C@@H](N)C(C)C)C(=O)N[C@@H](CCC(N)=O)C(=O)NCC(=O)N[C@@H](Cc1c[nH]cn1)C(=O)N[C@@H](C)C(=O)NCC(N)=O` [Example 32, H-VAEIQGHAG-NH2] (H-VAEIQGHAG-NH2), the IC50 stood at 200 nM.

Take `CC[C@H](C)[C@H](NC(=O)[C@H](CC(N)=O)NC(=O)[C@H](Cc1c[nH]cn1)NC(=O)[C@@H](N)CC(C)C)C(=O)N[C@@H](CC(C)C)C(=O)NCC(=O)N[C@H](C(=O)N[C@@H](CCC(=O)O)C(=O)N[C@H](C(=O)NCC(=O)NCC(=O)N1CCC[C@H]1C(=O)NCC(N)=O)[C@@H](C)O)C(C)C` [Example 33, H-LHNILGVETGGPG-NH2] (H-LHNILGVETGGPG-NH2): the IC50 was 100 nM.

`CC(C)C[C@H](NC(=O)[C@H](CC(N)=O)NC(=O)[C@H](CC(=O)O)NC(=O)[C@H](Cc1c[nH]c2ccccc12)NC(=O)[C@@H](NC(=O)[C@H](CC(C)C)NC(=O)[C@H](CC(=O)O)NC(=O)[C@H](CO)NC(=O)[C@H](C)NC(=O)[C@@H](N)CO)[C@@H](C)O)C(=O)N[C@@H](CCCCN)C(N)=O` [Example 34, H-SASDLTWDNLK-NH2] (H-SASDLTWDNLK-NH2): the IC50 was 1000 nM.

Regarding `CC[C@H](C)[C@H](N)C(=O)N[C@@H](CO)C(=O)N[C@@H](CCC(=O)O)C(=O)N[C@@H](CC(C)C)C(=O)N[C@@H](Cc1ccccc1)C(=O)N[C@H](C(=O)N[C@@H](CC(C)C)C(=O)N[C@@H](CCC(=O)O)C(N)=O)[C@@H](C)O` [Example 35, H-ISELFTLE-NH2] (H-ISELFTLE-NH2), the IC50 worked out at 5600 nM.

For `CSCC[C@H](NC(=O)[C@H](CCC(N)=O)NC(=O)[C@H](CCC(=O)O)NC(=O)[C@H](CCSC)NC(=O)[C@H](CC(C)C)NC(=O)[C@@H]1CCCN1C(=O)CNC(=O)[C@@H]1CCCN1C(=O)[C@@H]1CCCN1C(=O)CNC(=O)CNC(=O)[C@@H]1CCCN1C(=O)CNC(=O)CN)C(=O)NCC(N)=O` [Example 36, H-GGPGGPPGPLMEQMG-NH2] (H-GGPGGPPGPLMEQMG-NH2), the IC50 worked out at 2900 nM.

In the case of `CC(C)C[C@H](NC(=O)[C@H](C)N)C(=O)N[C@@H](CCC(=O)O)C(=O)N[C@@H](Cc1c[nH]c2ccccc12)C(=O)N[C@@H](CC(C)C)C(=O)NCC(=O)N[C@@H](C)C(=O)N[C@@H](CC(=O)O)C(=O)N[C@@H](CCCNC(=N)N)C(=O)N[C@@H](CC(N)=O)C(=O)N[C@@H](CCC(=O)O)C(N)=O` [Example 37, H-ALEWLGADRNE-NH2] (H-ALEWLGADRNE-NH2), the IC50 came out at 800 nM.

Regarding `CC[C@H](C)[C@H](NC(=O)[C@@H]1CCCN1C(=O)[C@H](CCC(=O)O)NC(=O)[C@H](CC(=O)O)NC(=O)[C@@H](NC(=O)CNC(=O)[C@H](CCC(=O)O)NC(=O)[C@H](Cc1ccccc1)NC(=O)[C@H](CC(=O)O)NC(=O)[C@@H](NC(=O)[C@@H](N)CC(=O)O)C(C)C)[C@@H](C)O)C(=O)N[C@@H](Cc1ccccc1)C(N)=O` [Example 38, H-DVDFEGTDEPIF-NH2] (H-DVDFEGTDEPIF-NH2), the IC50 was found to be 500 nM.

With `CC(C)C[C@H](NC(=O)[C@H](C)NC(=O)[C@H](CCCCN)NC(=O)CNC(=O)[C@@H]1CCCN1C(=O)[C@@H](NC(=O)[C@H](C)NC(=O)CN)[C@@H](C)O)C(=O)N[C@H](C(=O)N[C@@H](C)C(=O)N[C@H](C(=O)N1CCC[C@H]1C(N)=O)[C@@H](C)O)C(C)C` [Example 39, H-GATPGKALVATP-NH2] (H-GATPGKALVATP-NH2), the IC50 was 400 nM.

With `CC[C@H](C)[C@H](NC(=O)[C@H](Cc1ccccc1)NC(=O)[C@H](C)NC(=O)[C@H](CCSC)NC(=O)[C@@H](NC(=O)[C@H](CCC(=O)O)NC(=O)[C@@H]1CCCN1C(=O)CNC(=O)[C@H](CCCCN)NC(=O)[C@@H](N)CCSC)C(C)C)C(=O)N[C@@H](CCC(=O)O)C(=O)N[C@@H](CCC(N)=O)C(N)=O` [Example 40, H-MKGPEVMAFIEQ-NH2] (H-MKGPEVMAFIEQ-NH2), the IC50 stood at 130 nM.

As for `CC(C)C[C@H](NC(=O)[C@H](CCCCN)NC(=O)[C@H](CO)NC(=O)[C@@H](N)CCC(=O)O)C(=O)N[C@@H](CCC(=O)O)C(=O)N[C@@H](CCCNC(=N)N)C(=O)N[C@H](C(=O)N1CCC[C@H]1C(=O)N[C@@H](CCC(N)=O)C(=O)N[C@@H](CCCCN)C(=O)N[C@@H](CC(N)=O)C(=O)N[C@H](C(=O)N[C@@H](CCC(N)=O)C(N)=O)C(C)C)[C@@H](C)O` [Example 41, H-ESKLERTPQKNVQ-NH2] (H-ESKLERTPQKNVQ-NH2), the IC50 came out at 250 nM.

`CC(C)[C@H](NC(=O)[C@@H](NC(=O)[C@H](CCCCN)NC(=O)[C@@H]1CCCN1C(=O)[C@@H](NC(=O)[C@@H](NC(=O)[C@H](C)NC(=O)[C@H](CCCNC(=N)N)NC(=O)[C@@H]1CCCN1)[C@@H](C)O)[C@@H](C)O)[C@@H](C)O)C(=O)N[C@@H](CCCNC(=N)N)C(=O)N[C@@H](CO)C(N)=O` [Example 42, H-PRATTPKTVRS-NH2] (H-PRATTPKTVRS-NH2): the IC50 turned out to be 560 nM.

In the case of `CSCC[C@H](NC(=O)[C@H](CO)NC(=O)[C@H](CCSC)NC(=O)[C@H](CO)NC(=O)[C@H](CC(=O)O)NC(=O)[C@H](CCCCN)NC(=O)[C@H](CC(N)=O)NC(=O)[C@H](CCC(N)=O)NC(=O)[C@H](CCCNC(=N)N)NC(=O)[C@@H](NC(=O)[C@H](CCCCN)NC(=O)[C@@H](N)CCSC)[C@@H](C)O)C(=O)N[C@@H](CCCNC(=N)N)C(=O)N[C@@H](CO)C(N)=O` [Example 43, H-MKTRQNKDSMSMRS-NH2] (H-MKTRQNKDSMSMRS-NH2), the IC50 came to 50 nM.

Consider `CSCC[C@H](NC(=O)[C@H](CCCNC(=N)N)NC(=O)[C@@H](N)CCC(=O)O)C(=O)NCC(=O)N[C@@H](Cc1c[nH]cn1)C(=O)N[C@@H](Cc1c[nH]cn1)C(=O)N[C@@H](CC(=O)O)C(=O)N[C@@H](CC(=O)O)C(=O)N[C@@H](Cc1ccc(O)cc1)C(=O)N[C@@H](Cc1ccc(O)cc1)C(=O)N[C@@H](CO)C(=O)N[C@@H](CCCNC(=N)N)C(=O)N[C@@H](CC(C)C)C(=O)N[C@@H](CCCNC(=N)N)C(N)=O` [Example 44, H-ERMGHHDDYYSRLR-NH2] (H-ERMGHHDDYYSRLR-NH2), for which the IC50 was determined as 100 nM.

In the case of `CC[C@H](C)[C@H](NC(=O)[C@H](Cc1ccccc1)NC(=O)[C@H](CCC(=O)O)NC(=O)[C@@H]1CCCN1C(=O)[C@H](Cc1ccc(O)cc1)NC(=O)[C@H](Cc1c[nH]cn1)NC(=O)[C@H](CCC(=O)O)NC(=O)[C@@H](NC(=O)[C@@H](N)CC(C)C)C(C)C)C(N)=O` [Example 45, H-LVEHYPEFI-NH2] (H-LVEHYPEFI-NH2), the IC50 amounted to 700 nM.

Consider `CC(C)C[C@H](NC(=O)CNC(=O)[C@H](CC(C)C)NC(=O)[C@H](CC(N)=O)NC(=O)[C@H](CCCNC(=N)N)NC(=O)[C@H](CC(C)C)NC(=O)[C@@H](NC(=O)[C@H](CO)NC(=O)[C@@H](NC(=O)[C@H](CO)NC(=O)[C@@H](N)Cc1ccccc1)C(C)C)[C@@H](C)O)C(N)=O` [Example 46, H-FSVSTLRNLGL-NH2] (H-FSVSTLRNLGL-NH2), for which the IC50 amounted to 100 nM.

Turning to `CC[C@H](C)[C@H](NC(=O)[C@H](CCCCN)NC(=O)[C@@H](NC(=O)[C@H](CC(C)C)NC(=O)[C@@H](NC(=O)CNC(=O)[C@@H](N)CO)[C@@H](C)O)[C@@H](C)CC)C(=O)N[C@@H](Cc1ccccc1)C(=O)N[C@@H](CCC(N)=O)C(=O)N[C@@H](C)C(=O)N[C@@H](CO)C(N)=O` [Example 47, H-SGTLIKIFQAS-NH2] (H-SGTLIKIFQAS-NH2), the IC50 was 300 nM.

Regarding `CSCC[C@H](NC(=O)[C@H](C)NC(=O)[C@H](CCCCN)NC(=O)[C@H](CC(N)=O)NC(=O)[C@H](C)NC(=O)[C@H](CCC(=O)O)NC(=O)[C@H](CCC(=O)O)NC(=O)[C@H](CCCCN)NC(=O)[C@H](C)NC(=O)[C@H](CC(=O)O)NC(=O)[C@H](CCC(N)=O)NC(=O)[C@H](CCC(=O)O)NC(=O)[C@H](C)NC(=O)[C@@H](N)Cc1ccccc1)C(N)=O` [Example 48, H-FAEQDAKEEANKAM-NH2] (H-FAEQDAKEEANKAM-NH2), the IC50 amounted to 1470 nM.

The values are drawn from US20020059032A1, “Rational selection of putative peptides from identified nucleotide or peptide sequences” (priority 1999, published 2002).
